Reference: patent publication US8962608B2, “Cycloalkylnitrile pyrazole carboxamides as janus kinase inhibitors” (Merck Sharp & Dohme Corp., priority 2011, dated 2015)
pIC50: −log10 of the molar value. Where a name gives a salt, the structure may show the parent alone. Read-outs that look alike come from different tables or passages of the source.

Legend:
[1] = biological target: JAK1 (recombinant purified GST-tagged catalytic domain) (Homo sapiens (Human), UniProt P23458);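 also: biochemical assay with HTRF read-out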
JAK1 (recombinant purified GST-tagged catalytic domain), sequence (P23458 875-1153): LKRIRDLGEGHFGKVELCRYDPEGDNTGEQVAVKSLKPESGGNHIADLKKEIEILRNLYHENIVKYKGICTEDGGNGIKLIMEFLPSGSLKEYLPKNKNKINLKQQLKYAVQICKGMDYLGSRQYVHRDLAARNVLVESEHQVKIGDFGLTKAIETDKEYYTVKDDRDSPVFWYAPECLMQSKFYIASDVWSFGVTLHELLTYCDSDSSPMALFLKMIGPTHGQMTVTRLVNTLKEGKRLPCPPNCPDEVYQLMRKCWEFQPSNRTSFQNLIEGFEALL

[2] = biological target: T1, JAK2 (recombinant purified GST-tagged catalytic domain) (Homo sapiens (Human), UniProt O60674);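 also: biochemical JAK kinase assay with HTRF detection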
T1 sequence (O60674 849-1124): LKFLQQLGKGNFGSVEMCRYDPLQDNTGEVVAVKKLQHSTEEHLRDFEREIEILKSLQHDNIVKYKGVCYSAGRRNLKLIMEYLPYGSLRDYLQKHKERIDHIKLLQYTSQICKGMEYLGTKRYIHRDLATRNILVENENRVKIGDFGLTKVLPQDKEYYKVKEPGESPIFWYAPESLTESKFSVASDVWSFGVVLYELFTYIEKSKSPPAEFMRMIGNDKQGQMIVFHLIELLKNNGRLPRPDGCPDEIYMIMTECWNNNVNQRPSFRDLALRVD

[3] = biological target: T1, JAK2 (recombinant purified GST-tagged catalytic domain); assay: biochemical

Row | Structure (SMILES) | pIC50 [1] | pIC50 [2] | pIC50 [3]
1 | CC[N+]1([C@H]2CC[C@H](n3cc(C(N)=O)c(Nc4ccc(Cl)cc4)n3)[C@@H](C#N)C2)CCC1 [Example 31-3, 1-[(1S,3S,4S)-4-{4-carbamoyl-3-[(4-chlorophenyl)amino]-1H-pyrazol-1-yl}-3-cyanocyclohexyl]-1-ethylazetidinium] | 9.00 | 7.55 | –
2 | N#C[C@H]1C[C@@H](NCC2(O)CC2)CC[C@@H]1n1cc(C(N)=O)c(Nc2ccc(Cl)cc2)n1 (single isomer, unassigned) [Example 28-220, 3-[(4-chlorophenyl)amino]-1-[(1S,2S,4S or 1R,2R,4R)-2-cyano-4-{[(1-hydroxycyclo-propyl)methyl]amino}cyclohexyl]-1H-pyrazole-4-carboxamide] | 8.70 | 7.52 | –
3 | N#C[C@H]1CCC[C@@H]1n1cc(C(N)=O)c(Nc2ccccc2)n1 (mixture of isomers) [Example 1-2, 1-{[(1S,2S) and (1R,2R)]-2-cyanocyclopentyl]}-3-(phenylamino)-1H-pyrazole-4-carboxamide] | 8.10 | 7.00 | –
4 | CN[C@@H]1CC[C@H](C#N)[C@@H](n2cc(C(N)=O)c(Nc3ccc(F)cc3)n2)C1 (mixture of isomers) [Example 6-3, 1-{[(1S,2S,5R) and (1R,2R,5S)]-2-cyano-5-(methylamino)cyclohexyl}-3-[(4-fluorophenyl)amino]-1H-pyrazole-4-carboxamide] | 6.60 | < 5.82 | –
5 | N#C[C@H]1C[C@H](O)CC[C@@H]1n1cc(C(N)=O)c(Nc2ccc(C(F)(F)F)cc2)n1 (single isomer, unassigned) [Example 25-24, 1-[(1S,2S,4R or 1R,2R,4S)-2-cyano-4-hydroxycyclohexyl]-3-{[4-(trifluoromethyl)phenyl]amino}-1H-pyrazole-4-carboxamide] | 9.00 | – | 8.10
6 | N#C[C@H]1CC[C@H](NCc2ccccc2)C[C@@H]1n1cc(C(N)=O)c(Nc2ccc(F)cc2)n1 (mixture of isomers) [Example 6-4, 1-{[(1S,2S,5S) and (1R,2R,5R)]-5-(benzylamino)-2-cyanocyclohexyl}-3-[(4-fluorophenyl)amino]-1H-pyrazole-4-carboxamide] | 8.40 | 7.26 | –
7 | C[C@]1(C#N)CCCC[C@@H]1n1cc(C(N)=O)c(Nc2ccc(F)cc2)n1 (mixture of isomers) [Example 19-2, 1-((1S,2S and 1R,2R)-2-cyano-2-methylcyclohexyl)-3-((4-fluorophenyl)amino)-1H-pyrazole-4-carboxamide] | 8.40 | 7.96 | –
8 | N#C[C@H]1CC(F)CC[C@@H]1n1cc(C(N)=O)c(Nc2ccccc2)n1 (mixture of isomers) [Example 22-1, 1-[(1S,2S and 1R,2R)-2-Cyano-4-fluorocyclohexyl]-3-(phenylamino)-1H-pyrazole-4-carboxamide] | 8.40 | 7.55 | –
9 | CC1(C)CN(C(=O)[C@@H]2CC[C@@H](n3cc(C(N)=O)c(Nc4ccc(Cl)cc4)n3)[C@H](C#N)C2)C1 (single isomer, unassigned) [Example 35-2, 3-(4-chlorophenylamino)-1-((1R,2R,4R or 1S,2S,4S)-2-cyano-4-(3,3-dimethylazetidine-1-carbonyl)cyclohexyl)-1H-pyrazole-4-carboxamide] | 8.05 | 6.54 | –
10 | CN(C)[C@@H]1CC[C@H](C#N)[C@@H](n2cc(C(N)=O)c(Nc3ccc(F)cc3)n2)C1 (mixture of isomers) [Example 6-2, 1-[(1S,2S,5R and 1R,2R,5S)-2-cyano-5-(dimethylamino)cyclohexyl]-3-[(4-fluorophenyl)amino]-1H-pyrazole-4-carboxamide] | 6.52 | < 5.82 | –
11 | N#C[C@@H]1CCC2(C[C@@H]1n1cc(C(N)=O)c(Nc3ccccc3)n1)OCCO2 (single isomer, unassigned) [Example 45-2, 1-[(7S,8R or 7R,8S)-8-Cyano-1,4-dioxaspiro[4.5]dec-7-yl]-3-(phenylamino)-1H-pyrazole-4-carboxamide] | 9.07 | 8.40 | –
12 | CC1(C)CC[C@H](C#N)[C@@H](n2cc(C(N)=O)c(Nc3ccccc3)n2)C1 (mixture of isomers) [Example 11-1, 1-{[(1S,2S) and (1R,2R)]-2-Cyano-5,5-dimethylcyclohexyl}-3-(phenylamino)-1H-pyrazole-4-carboxamide] | 7.27 | 6.75 | –
13 | COCC(C)N(C)[C@H]1CCC(n2cc(C(N)=O)c(Nc3ccc(Cl)cc3)n2)[C@@H](C#N)C1 (single isomer, unassigned) [Example 28-241, 3-[(4-chlorophenyl)amino]-1-[(1R,2S,4S1S,2S,4S or 1R,2R,4R)-2-cyano-4-{[(1S or 1R)-2-methoxy-1-methylethyl](methyl)ami-no}cyclohexyl]-1H-pyrazole-4-carboxamide] | 8.70 | – | 7.55
14 | N#C[C@H]1CCCC[C@@H]1n1cc(C(N)=O)c(Nc2cc(Cl)cc(Cl)c2)n1 (single isomer, unassigned) [Example 17-54, 1-[(1S,2S or 1R, 2R)-2-cyanocyclohexyl]-3-[(3,5-dichlorophenyl)amino]-1H-pyrazole-4-carboxamide] | 7.74 | 6.92 | –
15 | N#C[C@H]1C[C@H](N2CCC2)CC[C@@H]1n1cc(C(N)=O)c(Nc2ccc(OC(F)F)nc2)n1 (single isomer, unassigned) [Example 28-2, 1-[(1S,2S,4R or 1R,2R,4S)-4-(azetidin-1-yl)-2-cyanocyclohexyl]-3-{[6-(difluoromethoxy)pyridin-3-yl]amino}-1H-pyrazole-4-carboxamide] | 8.40 | 7.17 | –
16 | N#C[C@@H]1CCC2(C[C@H]1n1cc(C(N)=O)c(Nc3ccccc3)n1)OCCO2 (single isomer, unassigned) [Example 45-1, 1-[(7R,8R or 7S,8S)-8-Cyano-1,4-dioxaspiro[4.5]dec-7-yl]-3-(phenylamino)-1H-pyrazole-4-carboxamide] | 7.36 | 6.63 | –
17 | CS(=O)(=O)c1ccc(Nc2nn([C@H]3CCCC[C@@H]3C#N)cc2C(N)=O)cc1 (single isomer, unassigned) [Example 42-2, 1-[(1S,2S or 1R,2R)-2-cyanocyclohexyl]-3-{[4-(methylsulfonyl)phenyl]amino}-1H-pyrazole-4-carboxamide] | – | 7.57 | –
18 | CS(=O)(=O)c1ccc(Nc2nn([C@H]3CCCC[C@H]3C#N)cc2C(N)=O)cc1 (single isomer, unassigned) [Example 42-4, 1-[(1S,2R or 1R,2S)-2-cyanocyclohexyl]-3-{[4-(methylsulfonyl)phenyl]amino}-1H-pyrazole-4-carboxamide] | – | 8.15 | –
19 | N#C[C@@H]1CCC2(C[C@H]1n1cc(C(N)=O)c(Nc3ccccc3)n1)OCCO2 (single isomer, unassigned) [Example 45-3, 1-[(7R,8R or 7S,8S)-8-Cyano-1,4-dioxaspiro[4.5]dec-7-yl]-3-(phenylamino)-1H-pyrazole-4-carboxamide] | 6.83 | 6.51 | –
20 | N#CC1CCC2(CC1n1cc(C(N)=O)c(Nc3ccccc3)n1)OCCO2 (centres unmarked) [Example 2-3, 1-(8-cyano-1,4-dioxaspiro[4.5]dec-7-yl)-3-(phenylamino)-1H-pyrazole-4-carboxamide] | 8.05 | 7.33 | –
21 | COC(=O)[C@H]1CCC(n2cc(C(N)=O)c(Nc3ccc(F)cc3)n2)[C@@H](C#N)C1 (some centres unmarked) [Example 7-2] | 7.85 | 7.00 | –
22 | N#C[C@@H]1CCCC[C@@H]1n1cc(C(N)=O)c(Nc2ccc(CC(=O)O)cc2)n1 (mixture of isomers) [Example 3-1, [4-({4-carbamoyl-1-[(1S,2R and 1R,2S)-2-cyanocyclohexyl]-1H-pyrazol-3-yl}amino)phenyl]acetic acid] | – | 6.96 | –
23 | CS(=O)(=O)c1ccc(Nc2nn([C@H]3CCCC[C@H]3C#N)cc2C(N)=O)cc1 (single isomer, unassigned) [Example 42-3, 1-[(1S,2R or 1R,2S)-2-cyanocyclohexyl]-3-{[4-(methylsulfonyl)phenyl]amino}-1H-pyrazole-4-carboxamide] | – | 7.07 | –
24 | CC1(N[C@H]2CCC(n3cc(C(N)=O)c(Nc4ccc(Cl)cc4)n3)[C@@H](C#N)C2)CC1 (single isomer, unassigned) [Example 28-205, 3-[(4-chlorophenyl)amino]-1-{(1S,2S,4S or 1R,2R,4R,)-2-cyano-4-[(1-methylcyclopropyl)amino]cyclo-hexyl}-1H-pyrazole-4-carboxamide] | 9.05 | – | –
25 | N#C[C@H]1C[C@@H]([N+]2(CC3CC3)CCC2)CC[C@@H]1n1cc(C(N)=O)c(Nc2ccc(Cl)cc2)n1 [Example 31-5, 1-[(1S,3S,4S)-4-{4-carbamoyl-3-[(4-chlorophenyl)amino]-1H-pyrazol-1-yl}-3-cyanocyclohexyl]-1-(cyclopropylmethyl)azetidinium] | 9.07 | – | –
26 | CC(C)(C)OC(=O)C1CCC(n2cc(C(N)=O)c(Nc3ccc(S(=O)(=O)C(F)(F)F)cc3)n2)C(C#N)C1 (centres unmarked) [Example 17-2, tert-butyl 4-[4-carbamoyl-3-({4-[(trifluoromethyl)sulfonyl]phenyl}amino)-1H-pyrazol-1-yl]-3-cyanocyclohexanecarboxylate] | 7.64 | – | –
27 | CN(C)[C@H]1CC[C@H](n2cc(C(N)=O)c(Nc3ccc(S(=O)(=O)C(F)(F)F)cc3)n2)[C@@H](C#N)C1 (mixture of isomers) [Example 27-1, 1-[(1S,3S,4S and 1R,3R,4R)-4-[4-carbamoyl-3-({4-[(trifluoromethyl)sulfonyl]phenyl}amino)-1H-pyrazol-1-yl]-3-cyano-N,N-dimethylcyclohexanaminium trifluoroacetate] | 9.70 | – | –
28 | CS(=O)(=O)c1ccc(Nc2nn(C3CCCCC3C#N)cc2C(N)=O)cc1 (centres unmarked) [Example 2-15, 1-(2-cyanocyclohexyl)-3-{[4-(methylsulfonyl)phenyl]amino}-1H-pyrazole-4-carboxamide] | – | 8.05 | –
